Target: T1, Mcl-1/Bim interaction, recombinant human Mcl-1 (171-327) (Homo sapiens, UniProt Q07820)
T1 construct: made in house
Assay: Cell free Mcl-1: Bim Affinity Assay (Mcl-1 HTRF)
Format: binding
In short: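 Read-out is time-resolved FRET after overnight incubation, using a biotin-labelled peptide from human Bim (51-76) as the binding partner; IC50 was derived from competition curves.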

[1] = cell free Mcl-1:Bim TR-FRET, recombinant human Mcl-1 (171-327)
[2] = TR-FRET, 0.1 nM Mcl-1 (171-327), 0.05 nM biotin-Bim (51-76)

T1 sequence (Q07820 171-327): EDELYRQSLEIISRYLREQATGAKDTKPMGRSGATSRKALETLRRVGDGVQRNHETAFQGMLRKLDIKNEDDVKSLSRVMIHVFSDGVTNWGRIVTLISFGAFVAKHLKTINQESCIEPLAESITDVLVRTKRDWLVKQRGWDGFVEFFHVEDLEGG

| IC50 [1] [nM] | IC50 [2] [nM] | Compound |
| --- | --- | --- |
| 3.44 | – | O=C1NS(=O)(=O)CCCCCC[C@H](O)[C@@H]2CC[C@H]2CN2C[C@@]3(CCCc4cc(Cl)ccc43)COc3ccc1cc32 [Example 835, (1S,3′R,6′R,7′S)-6-chloro-7′-hydroxy-3,4-dihydro-2H,16′H-spiro[naphthalene-1,23′[21]oxa[14]thia[1,15]diazatetracyclo[15.7.2.0^3,6.0^20,25]hexacosa[17,19,25]trien]-16′-one 14′,14′-dioxide] |
| 6.8 | – | O=C1NS(=O)(=O)CCCCC[C@@H](O)[C@@H]2CC[C@H]2CN2C[C@@]3(CCCc4cc(Cl)ccc43)COc3ccc1cc32 [Example 843, (1S,3′R,6′R,7′R)-6-chloro-7′-hydroxy-3,4-dihydro-2H,15′H-spiro[naphthalene-1,22′-[20]oxa[13]thia[1,14]diazatetracyclo[14.7.2.0^3,6.0^19,24]pentacosa [16,18,24]trien]-15′-one 13′,13′-dioxide] |
| 27.8 | – | O=C1NS(=O)(=O)CCCC/C=C/[C@@H]2CC[C@H]2CN2C[C@@]3(CCCc4cc(Cl)ccc43)COc3ccc1cc32 [Example 858, (1S,3′R,6′S, 7′E)-6-chloro-3,4-dihydro-2H,15′H-spiro[naphthalene-1,22′-[20]oxa[13]thia[1,14]diazatetracyclo[14.7.2.0^3,6.0^19,24]pentacosa [7,16,18,24]tetraen]-15′-one 13′,13′-dioxide] |
| 6.36 | – | C=C1/C=C/CC[C@@H](CC)S(=O)(=O)NC(=O)c2ccc3c(c2)N(C[C@@H]2CC[C@@H]12)C[C@@]1(CCCc2cc(Cl)ccc21)CO3 [Example 872, (1S,3′R,6′R,8′E,12′R)-6-chloro-12′-ethyl-7′-methylidene-3,4-dihydro-2H,15′H-spiro[naphthalene-1,22′-[20]oxa[13]thia[1,14]diazatetracyclo[14.7.2.0^3,6.0^19,24]pentacosa [8,16,18,24]tetraen]-15′-one 13′,13′-dioxide] |
| 16.2 | – | C=C1CCCCCS(=O)(=O)NC(=O)c2ccc3c(c2)N(C[C@@H]2CC[C@@H]12)C[C@@]1(CCCc2cc(Cl)ccc21)CO3 [Example 904, (1S,3′R,6′R)-6-chloro-7′-methylidene-3,4-dihydro-2H,15′H-spiro[naphthalene-1,22′-[20]oxa[13]thia[1,14]diazatetracyclo[14.7.2.0^3,6.0^19,24]pentacosa [16,18,24]trien]-15′-one 13′,13′-dioxide] |
| 14.1 | – | O=C1NS(=O)(=O)CC/C=C/CC(=O)[C@@H]2CC[C@H]2CN2C[C@@]3(CCCc4cc(Cl)ccc43)COc3ccc1cc32 [Example 905, (1S,3′R,6′R,9′E)-6-chloro-3,4-dihydro-2H,7′H,15′H-spiro[naphthalene-1,22′-[20]oxa[13]thia[1,14]diazatetracyclo[14.7.2.0^3,6.0^19,24]pentacosa [9,16,18,24]tetraene]-7′,15′-dione 13′,13′-dioxide] |
| 16.2 | – | CC[C@@H]1CC/C=C/C(=O)[C@@H]2CC[C@H]2CN2C[C@@]3(CCCc4cc(Cl)ccc43)COc3ccc(cc32)C(=O)NS1(=O)=O [Example 915, (1S,3′R,6′R,8′E,12′R)-6-chloro-12′-ethyl-3,4-dihydro-2H,7′H,15′H-spiro[naphthalene-1,22′-[20]oxa[13]thia[1,14]diazatetracyclo[14.7.2.0^3,6.0^19,24]pentacosa [8,16,18,24]tetraene]-7′,15′-dione 13′,13′-dioxide] |
| 12 | – | O=C1CC[C@@H]2CC[C@H]2CN2C[C@@]3(CCCc4cc(Cl)ccc43)COc3ccc(cc32)C(=O)NS(=O)(=O)CCN1 [Example 945, (1S,3′R,6′S)-6-chloro-3,4-dihydro-2H,9′H,15′H-spiro[naphthalene-1,22′-[20]oxa[13]thia[1,10,14]triazatetracyclo[14.7.2.0^3,6.0^19,24]pentacosa[16,18,24]triene]-9′,15′-dione 13′,13′-dioxide] |
| – | 1.01 | CC[C@@H]1CC/C=C\[C@H](OCC(=O)NC)[C@@H]2CC[C@H]2CN2C[C@@]3(CCCc4cc(Cl)ccc43)COc3ccc(cc32)C(=O)NS1(=O)=O [Example 964, 2-(((1S,3′R,6′R,7′S,8′Z,12′R)-6-chloro-12′-ethyl-13′,13′-dioxido-15′-oxo-3,4-dihydro-2H-spiro[naphthalene-1,22′-[20]oxa[13]thia[1,14]diazatetracyclo[14.7.2.0^3,6.0^19,24]pentacosa [8,16,18,24]tetraen]-7′-yl)oxy)-N-methylacetamide] |
| – | 1.9 | CC[C@@H]1CC/C=C/[C@H](OCCC2OCCO2)[C@@H]2CC[C@H]2CN2C[C@@]3(CCCc4cc(Cl)ccc43)COc3ccc(cc32)C(=O)NS1(=O)=O [Example 968, (1S,3′R,6′R,7′S,8′E,12′R)-6-chloro-7′-(2-(1,3-dioxolan-2-yl)ethoxy)-12′-ethyl-3,4-dihydro-2H,15′H-spiro[naphthalene-1,22′-[20]oxa[13]thia[1,14]diazatetracyclo[14.7.2.0^3,6.0^19,24]pentacosa [8,16,18,24]tetraen]-15′-one 13′,13′-dioxide] |
| – | 0.859 | CC[C@@H]1CC/C=C/[C@H](OCCO)[C@@H]2CC[C@H]2CN2C[C@@]3(CCCc4cc(Cl)ccc43)COc3ccc(cc32)C(=O)NS1(=O)=O [Example 970, (1S,3′R,6′R,7′S,8′E,12′R)-6-chloro-12′-ethyl-7′-(2-hydroxyethoxy)-3,4-dihydro-2H,15′H-spiro[naphthalene-1,22′-[20]oxa[13]thia[1,14]diazatetracyclo[14.7.2.0^3,6.0^19,24]pentacosa [8,16,18,24]tetraen]-15′-one 13′,13′-dioxide] |
| – | 8.44 | CC[C@@H]1CC/C=C/[C@H](OCC(=O)OC(C)(C)C)[C@@H]2CC[C@H]2CN2C[C@@]3(CCCc4cc(Cl)ccc43)COc3ccc(cc32)C(=O)NS1(=O)=O [Example 971, tert-butyl (((1S,3′R,6′R,7′S,8′E,12′R)-6-chloro-12′-ethyl-13′,13′-dioxido-15′-oxo-3,4-dihydro-2H-spiro[naphthalene-1,22′-[20]oxa[13]thia[1,14]diazatetracyclo[14.7.2.0^3,6.0^19,24]pentacosa [8,16,18,24]tetraen]-7′-yl)oxy)acetate] |
| – | 1.59 | CC[C@@H]1CC/C=C/[C@H](OCC(C)(C)O)[C@@H]2CC[C@H]2CN2C[C@@]3(CCCc4cc(Cl)ccc43)COc3ccc(cc32)C(=O)NS1(=O)=O [Example 972, (1S,3′R,6′R,7′S,8′E,12′R)-6-chloro-12′-ethyl-7′-(2-hydroxy-2-methylpropoxy)-3,4-dihydro-2H,15′H-spiro[naphthalene-1,22′-[20]oxa[13]thia[1,14]diazatetracyclo[14.7.2.0^3,6.0^19,24]pentacosa [8,16,18,24]tetraen]-15′-one 13′,13′-dioxide] |
| – | 0.378 | CC[C@@H]1CC/C=C/[C@H](OCC(=O)N(C)C)[C@@H]2CC[C@H]2CN2C[C@@]3(CCCc4cc(Cl)ccc43)COc3ccc(cc32)C(=O)NS1(=O)=O [Example 973] |
| – | 0.716 | CC[C@@H]1CC/C=C/[C@H](OCC(=O)NC)[C@@H]2CC[C@H]2CN2C[C@@]3(CCCc4cc(Cl)ccc43)COc3ccc(cc32)C(=O)NS1(=O)=O [Example 974, 2-(((1S,3′R,6′R,7′S,8′E,12′R)-6-chloro-12′-ethyl-13′,13′-dioxido-15′-oxo-3,4-dihydro-2H-spiro[naphthalene-1,22′-[20]oxa[13]thia[1,14]diazatetracyclo[14.7.2.0^3,6.0^19,24]pentacosa [8,16,18,24]tetraen]-7′-yl)oxy)-N-methylacetamide] |
| – | 2.15 | CCO[C@H]1/C=C/CC[C@@H](CC)S(=O)(=O)NC(=O)c2ccc3c(c2)N(C[C@@H]2CC[C@H]21)C[C@@]1(CCCc2cc(Cl)ccc21)CO3 [Example 975, (1S,3′R,6′R,7′S,8′E,12′R)-6-chloro-7′-ethoxy-12′-ethyl-3,4-dihydro-2H,15′H-spiro[naphthalene-1,22′-[20]oxa[13]thia[1,14]diazatetracyclo[14.7.2.0^3,6.0^19,24]pentacosa [8,16,18,24]tetraen]-15′-one 13′,13′-dioxide] |
| – | 10.4 | CC[C@@H]1CC/C=C/[C@H](OCc2ccccn2)[C@@H]2CC[C@H]2CN2C[C@@]3(CCCc4cc(Cl)ccc43)COc3ccc(cc32)C(=O)NS1(=O)=O [Example 976, (1S,3′R,6′R,7′S,8′E,12′R)-6-chloro-12′-ethyl-7′-(2-pyridinylmethoxy)-3,4-dihydro-2H,15′H-spiro[naphthalene-1,22′-[20]oxa[13]thia[1,14]diazatetracyclo[14.7.2.0^3,6.0^19,24]pentacosa [8,16,18,24]tetraen]-15′-one 13′,13′-dioxide] |
| – | 0.755 | CC[C@@H]1CC/C=C/[C@H](OCCOC)[C@@H]2CC[C@H]2CN2C[C@@]3(CCCc4cc(Cl)ccc43)COc3ccc(cc32)C(=O)NS1(=O)=O [Example 980, (1S,3′R,6′R,7′S,8′E,12′R)-6-chloro-12′-ethyl-7′-(2-methoxyethoxy)-3,4-dihydro-2H,15′H-spiro[naphthalene-1,22′-[20]oxa[13]thia[1,14]diazatetracyclo[14.7.2.0^3,6.0^19,24]pentacosa [8,16,18,24]tetraen]-15′-one 13′,13′-dioxide] |
| – | 0.943 | CC[C@@H]1CC/C=C/[C@H](OCCS(C)(=O)=O)[C@@H]2CC[C@H]2CN2C[C@@]3(CCCc4cc(Cl)ccc43)COc3ccc(cc32)C(=O)NS1(=O)=O [Example 981, (1S,3′R,6′R,7′S,8′E,12′R)-6-chloro-12′-ethyl-7′-(2-(methylsulfonyl)ethoxy)-3,4-dihydro-2H,15′H-spiro[naphthalene-1,22′-[20]oxa[13]thia[1,14]diazatetracyclo[14.7.2.0^3,6.0^19,24]pentacosa [8,16,18,24]tetraen]-15′-one 13′,13′-dioxide] |
| – | 3.14 | CC[C@@H]1CC/C=C/[C@H](OCC#N)[C@@H]2CC[C@H]2CN2C[C@@]3(CCCc4cc(Cl)ccc43)COc3ccc(cc32)C(=O)NS1(=O)=O [Example 982, (((1S,3′R,6′R,7′S,8′E,12′R)-6-chloro-12′-ethyl-13′,13′-dioxido-15′-oxo-3,4-dihydro-2H-spiro[naphthalene-1,22′-[20]oxa[13]thia[1,14]diazatetracyclo[14.7.2.0^3,6.0^19,24]pentacosa [8,16,18,24]tetraen]-7′-yl)oxy)acetonitrile] |
